Assay: Thermodynamic solubility of regorafenib monohydrate in different solvents
Format: physicochemical
Details: thermodynamic from solid
Description: Regorafenib monohydrate has a limited solubility profile.

- solubility (aqueous with cosolvent or surfactant or cyclodextrin, solvent HPβ-Cyclodextrin/water (10:90)): < 100 µg/mL
- solubility (oil or lipid, solvent Light liquid paraffin): < 100 µg/mL
- solubility (solvent Water): < 100 µg/mL
SMILES: CNC(=O)c1cc(Oc2ccc(NC(=O)Nc3ccc(Cl)c(C(F)(F)F)c3)c(F)c2)ccn1 [regorafenib monohydrate, 4-{4-[({[4-chloro-3-(trifluoromethyl)phenyl]amino}carbonyl)amino]-3-fluorophenoxy}-N-methylpyridine-2-carboxamide]
